Data as given in US12723063B2, “GIPR-agonist compounds” (Eli Lilly and Company, priority 2019, dated 2026).
*1 amine or outer side, *2 acyl side, *3 side chain or, on linkers, in order; H or OH if unused. Where a SMILES comes first, the peptide text is derived from it. Side-chain parts run from the residue outwards. [ ]: non-standard residue; d: D form. The star is where a group is joined. C20 diacid = O=C(O)CCCCCCCCCCCCCCCCCCC(=O)*; αMePhe(2-F) = C[C@](N)(Cc1ccccc1F)C(=O)O; γGlu = O=C(O)[C@H](CCC(=O)[*:2])N[*:1]; αMeF = C[C@](N)(Cc1ccccc1)C(=O)O; 4Pal = N[C@@H](Cc1ccncc1)C(=O)O; AEEA = NCCOCCOCC(=O)O; Aib = CC(C)(N)C(=O)O

Columns and labels:
human GLP-1R = molecular target: T1, human GLP-1R (Homo sapiens, UniProt P43220); assay: [125I]-GLP-1 binding, SPA with WGA beads, 0.1% bacitracin; conditions: geometric mean, read-out: hGLP1R Ki
T1 construct: expressed in transfected cells; crude membranes
T1 sequence (P43220 24-463): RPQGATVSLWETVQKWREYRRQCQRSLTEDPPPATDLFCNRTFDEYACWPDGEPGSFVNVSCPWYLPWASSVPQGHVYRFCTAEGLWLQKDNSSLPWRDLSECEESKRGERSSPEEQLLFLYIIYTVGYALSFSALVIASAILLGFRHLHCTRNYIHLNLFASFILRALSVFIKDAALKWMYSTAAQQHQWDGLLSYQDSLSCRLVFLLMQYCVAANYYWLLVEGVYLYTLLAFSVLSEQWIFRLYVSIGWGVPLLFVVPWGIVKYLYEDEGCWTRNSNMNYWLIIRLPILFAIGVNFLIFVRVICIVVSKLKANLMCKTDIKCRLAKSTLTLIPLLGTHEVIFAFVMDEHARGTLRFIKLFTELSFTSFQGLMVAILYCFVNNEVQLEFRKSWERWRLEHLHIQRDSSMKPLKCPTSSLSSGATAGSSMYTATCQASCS
Outline: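 Binding buffer was 25 mM HEPES pH 7.4 with 2.5 mM CaCl2, 1 mM MgCl2, 0.1% (w/v) bacitracin, 0.003% Tween-20 and EDTA-free protease inhibitors. Four-parameter regression gave IC50, converted to Ki (geometric mean, SEM, n independent days).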

[1] = molecular target: T2, human GLP-1 receptor (GLP-1R) (Homo sapiens, UniProt P43220); assay: cAMP functional assay (HTRF) in HEK293 cells in presence of 0.1% casein; type: cell-based; conditions: HEK293 cells expressing human GLP-1R, geometric mean, read-out: hGLP1R cAMP Rel EC50 nM (SEM, n)
T2 construct: expressed in transfected cells; host or cells: HEK293
T2 sequence (P43220 24-463): as above

[2] = molecular target: T3, human glucagon receptor (GcgR) (Homo sapiens, UniProt P47871); assay: as above; type: cell-based; conditions: HEK293 cells expressing human GcgR, geometric mean, read-out: hGcgR cAMP Rel EC50 nM (SEM, n)
T3 construct: expressed in transfected cells; host or cells: HEK293
T3 sequence (P47871 26-477): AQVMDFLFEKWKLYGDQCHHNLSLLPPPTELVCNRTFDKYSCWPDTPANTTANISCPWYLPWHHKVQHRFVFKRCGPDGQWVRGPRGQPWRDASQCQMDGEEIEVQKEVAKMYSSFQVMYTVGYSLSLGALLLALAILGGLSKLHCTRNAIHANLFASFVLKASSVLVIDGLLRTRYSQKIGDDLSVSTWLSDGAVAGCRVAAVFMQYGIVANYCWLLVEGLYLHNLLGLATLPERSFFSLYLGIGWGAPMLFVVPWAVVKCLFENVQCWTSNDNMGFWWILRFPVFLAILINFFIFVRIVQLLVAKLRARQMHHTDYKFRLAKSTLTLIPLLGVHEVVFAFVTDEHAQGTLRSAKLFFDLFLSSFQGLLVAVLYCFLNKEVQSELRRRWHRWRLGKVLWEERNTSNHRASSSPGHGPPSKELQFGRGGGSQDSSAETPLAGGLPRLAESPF

| SMILES | Ki (human GLP-1R) | EC50 [1] | EC50 [2] |
| --- | --- | --- | --- |
| CC[C@H](C)[C@H](NC(=O)[C@H](CO)NC(=O)[C@H](Cc1ccc(O)cc1)NC(=O)[C@H](CC(=O)O)NC(=O)[C@H](CO)NC(=O)[C@@H](NC(=O)[C@](C)(Cc1ccccc1F)NC(=O)[C@@H](NC(=O)CNC(=O)[C@H](CCC(=O)O)NC(=O)C(C)(C)NC(=O)[C@@H](N)Cc1ccc(O)cc1)[C@@H](C)O)[C@@H](C)CC)C(=O)N[C@@H](C)C(=O)N[C@@H](CC(C)C)C(=O)N[C@@H](CC(=O)O)C(=O)N[C@@H](CCCCN)C(=O)N[C@@H](CCCCNC(=O)COCCOCCNC(=O)COCCOCCNC(=O)CC[C@H](NC(=O)CCCCCCCCCCCCCCCCCCC(=O)O)C(=O)O)C(=O)N[C@@H](Cc1c[nH]cn1)C(=O)N[C@@H](CCC(N)=O)C(=O)NC(C)(C)C(=O)N[C@@H](CC(=O)O)C(=O)N[C@@H](Cc1ccccc1)C(=O)N[C@H](C(=O)N[C@@H](CCC(=O)O)C(=O)N[C@@H](Cc1ccncc1)C(=O)N[C@@H](CC(C)C)C(=O)N[C@@H](CC(C)C)C(=O)N[C@@H](CCC(=O)O)C(=O)N[C@H](C(=O)NCC(=O)N1CCC[C@H]1C(=O)N[C@@H](CO)C(=O)N[C@@H](CO)C(=O)NCC(=O)N[C@@H](C)C(=O)N1CCC[C@H]1C(=O)N1CCC[C@H]1C(=O)N1CCC[C@H]1C(=O)N[C@@H](CO)C(N)=O)[C@@H](C)O)C(C)C [Example 38] (H-Y[Aib]EGT[αMePhe(2-F)]ISDYSIALDKK([AEEA-AEEA-γGlu-C20 diacid])HQ[Aib]DFVE[4Pal]LLETGPSSGAPPPS-NH2) | 776 nM | 1390 nM | > 5000 nM |
| CC[C@H](C)[C@H](NC(=O)[C@H](CO)NC(=O)[C@H](Cc1ccc(O)cc1)NC(=O)[C@H](CC(=O)O)NC(=O)[C@H](CO)NC(=O)[C@@H](NC(=O)[C@](C)(Cc1ccccc1F)NC(=O)[C@@H](NC(=O)CNC(=O)[C@H](CCC(=O)O)NC(=O)C(C)(C)NC(=O)[C@@H](N)Cc1ccc(O)cc1)[C@@H](C)O)[C@@H](C)CC)C(=O)N[C@@H](C)C(=O)N[C@@H](CC(C)C)C(=O)N[C@@H](CC(=O)O)C(=O)N[C@@H](CCCCN)C(=O)N[C@@H](CCCCNC(=O)COCCOCCNC(=O)COCCOCCNC(=O)CC[C@H](NC(=O)CCCCCCCCCCCCCCCCCCC(=O)O)C(=O)O)C(=O)N[C@@H](Cc1c[nH]cn1)C(=O)N[C@@H](CCC(N)=O)C(=O)NC(C)(C)C(=O)N[C@@H](CC(=O)O)C(=O)N[C@@H](Cc1ccccc1)C(=O)N[C@H](C(=O)N[C@@H](CCC(=O)O)C(=O)N[C@@H](Cc1ccncc1)C(=O)N[C@@H](CC(C)C)C(=O)N[C@@H](CC(C)C)C(=O)N[C@@H](CCC(=O)O)C(=O)NCC(=O)NCC(=O)N1CCC[C@H]1C(=O)N[C@@H](CO)C(=O)N[C@@H](CO)C(=O)NCC(=O)N[C@@H](C)C(=O)N1CCC[C@H]1C(=O)N1CCC[C@H]1C(=O)N1CCC[C@H]1C(=O)N[C@@H](CO)C(N)=O)C(C)C [Example 39] (H-Y[Aib]EGT[αMePhe(2-F)]ISDYSIALDKK([AEEA-AEEA-γGlu-C20 diacid])HQ[Aib]DFVE[4Pal]LLEGGPSSGAPPPS-NH2) | 235 nM | 3330 nM | > 5000 nM |
| CC[C@H](C)[C@H](NC(=O)[C@H](CO)NC(=O)[C@H](Cc1ccc(O)cc1)NC(=O)[C@H](CC(=O)O)NC(=O)[C@H](CO)NC(=O)[C@@H](NC(=O)[C@](C)(Cc1ccccc1F)NC(=O)[C@@H](NC(=O)CNC(=O)[C@H](CCC(=O)O)NC(=O)C(C)(C)NC(=O)[C@@H](N)Cc1ccc(O)cc1)[C@@H](C)O)[C@@H](C)CC)C(=O)N[C@@H](C)C(=O)N[C@@H](CC(C)C)C(=O)N[C@@H](CC(=O)O)C(=O)N[C@@H](CCCCN)C(=O)N[C@@H](CCCCNC(=O)COCCOCCNC(=O)COCCOCCNC(=O)CC[C@H](NC(=O)CCCCCCCCCCCCCCCCCCC(=O)O)C(=O)O)C(=O)N[C@@H](Cc1c[nH]cn1)C(=O)N[C@@H](CCC(N)=O)C(=O)NC(C)(C)C(=O)N[C@@H](CC(=O)O)C(=O)N[C@@H](Cc1ccccc1)C(=O)N[C@H](C(=O)N[C@@H](CCC(=O)O)C(=O)N[C@@H](Cc1c[nH]c2ccccc12)C(=O)N[C@@H](CC(C)C)C(=O)N[C@@H](CC(C)C)C(=O)N[C@@H](CCC(=O)O)C(=O)N[C@H](C(=O)NCC(=O)N1CCC[C@H]1C(=O)N[C@@H](CO)C(=O)N[C@@H](CO)C(=O)NCC(=O)N[C@@H](C)C(=O)N1CCC[C@H]1C(=O)N1CCC[C@H]1C(=O)N1CCC[C@H]1C(=O)N[C@@H](CO)C(N)=O)[C@@H](C)O)C(C)C [Example 40] (H-Y[Aib]EGT[αMePhe(2-F)]ISDYSIALDKK([AEEA-AEEA-γGlu-C20 diacid])HQ[Aib]DFVEWLLETGPSSGAPPPS-NH2) | 302 nM | 2330 nM | > 5000 nM |
| CC[C@H](C)[C@H](NC(=O)[C@H](CO)NC(=O)[C@H](Cc1ccc(O)cc1)NC(=O)[C@H](CC(=O)O)NC(=O)[C@H](CO)NC(=O)[C@@H](NC(=O)[C@](C)(Cc1ccccc1)NC(=O)[C@@H](NC(=O)CNC(=O)[C@H](CCC(=O)O)NC(=O)C(C)(C)NC(=O)[C@@H](N)Cc1ccc(O)cc1)[C@@H](C)O)[C@@H](C)CC)C(=O)N[C@@H](C)C(=O)N[C@@H](CC(C)C)C(=O)N[C@@H](CC(=O)O)C(=O)N[C@@H](CCCCN)C(=O)N[C@@H](CCCCNC(=O)COCCOCCNC(=O)COCCOCCNC(=O)CC[C@H](NC(=O)CCCCCCCCCCCCCCCCCCC(=O)O)C(=O)O)C(=O)N[C@@H](Cc1c[nH]cn1)C(=O)N[C@@H](CCC(N)=O)C(=O)NC(C)(C)C(=O)N[C@@H](CC(=O)O)C(=O)N[C@@H](Cc1ccccc1)C(=O)N[C@H](C(=O)N[C@@H](CCC(=O)O)C(=O)N[C@@H](Cc1ccncc1)C(=O)N[C@@H](CC(C)C)C(=O)N[C@@H](CC(C)C)C(=O)N[C@@H](CCC(=O)O)C(=O)N[C@H](C(=O)NCC(=O)N1CCC[C@H]1C(=O)N[C@@H](CO)C(=O)N[C@@H](CO)C(=O)NCC(=O)N[C@@H](C)C(=O)N1CCC[C@H]1C(=O)N1CCC[C@H]1C(=O)N1CCC[C@H]1C(=O)N[C@@H](CO)C(N)=O)[C@@H](C)O)C(C)C [Example 41] (H-Y[Aib]EGT[αMeF]ISDYSIALDKK([AEEA-AEEA-γGlu-C20 diacid])HQ[Aib]DFVE[4Pal]LLETGPSSGAPPPS-NH2) | > 906 nM | 1800 nM | > 5000 nM |
| CC[C@H](C)[C@H](NC(=O)[C@H](CO)NC(=O)[C@H](Cc1ccc(O)cc1)NC(=O)[C@H](CC(=O)O)NC(=O)[C@H](CO)NC(=O)[C@@H](NC(=O)[C@](C)(Cc1ccccc1)NC(=O)[C@@H](NC(=O)CNC(=O)[C@H](CCC(=O)O)NC(=O)C(C)(C)NC(=O)[C@@H](N)Cc1ccc(O)cc1)[C@@H](C)O)[C@@H](C)CC)C(=O)N[C@@H](C)C(=O)N[C@@H](CC(C)C)C(=O)N[C@@H](CC(=O)O)C(=O)N[C@@H](CCCCN)C(=O)N[C@@H](CCCCNC(=O)COCCOCCNC(=O)COCCOCCNC(=O)CC[C@H](NC(=O)CCCCCCCCCCCCCCCCCCC(=O)O)C(=O)O)C(=O)N[C@@H](Cc1c[nH]cn1)C(=O)N[C@@H](CCC(N)=O)C(=O)NC(C)(C)C(=O)N[C@@H](CC(=O)O)C(=O)N[C@@H](Cc1ccccc1)C(=O)N[C@H](C(=O)N[C@@H](CCC(=O)O)C(=O)N[C@@H](Cc1ccncc1)C(=O)N[C@@H](CC(C)C)C(=O)N[C@@H](CC(C)C)C(=O)N[C@@H](CCC(=O)O)C(=O)N[C@@H](CCC(N)=O)C(=O)NCC(=O)N1CCC[C@H]1C(=O)N[C@@H](CO)C(=O)N[C@@H](CO)C(=O)NCC(=O)N[C@@H](C)C(=O)N1CCC[C@H]1C(=O)N1CCC[C@H]1C(=O)N1CCC[C@H]1C(=O)N[C@@H](CO)C(N)=O)C(C)C [Example 42] (H-Y[Aib]EGT[αMeF]ISDYSIALDKK([AEEA-AEEA-γGlu-C20 diacid])HQ[Aib]DFVE[4Pal]LLEQGPSSGAPPPS-NH2) | 563 nM | 815 nM | > 5000 nM |
| CC[C@H](C)[C@H](NC(=O)[C@H](CO)NC(=O)[C@H](Cc1ccc(O)cc1)NC(=O)[C@H](CC(=O)O)NC(=O)[C@H](CO)NC(=O)[C@@H](NC(=O)[C@](C)(Cc1ccccc1)NC(=O)[C@@H](NC(=O)CNC(=O)[C@H](CCC(=O)O)NC(=O)C(C)(C)NC(=O)[C@@H](N)Cc1ccc(O)cc1)[C@@H](C)O)[C@@H](C)CC)C(=O)N[C@@H](C)C(=O)N[C@@H](CC(C)C)C(=O)N[C@@H](CC(=O)O)C(=O)N[C@@H](CCCCN)C(=O)N[C@@H](CCCCNC(=O)COCCOCCNC(=O)COCCOCCNC(=O)CC[C@H](NC(=O)CCCCCCCCCCCCCCCCCCC(=O)O)C(=O)O)C(=O)N[C@@H](Cc1c[nH]cn1)C(=O)N[C@@H](CCC(N)=O)C(=O)NC(C)(C)C(=O)N[C@@H](CC(=O)O)C(=O)N[C@@H](Cc1ccccc1)C(=O)N[C@H](C(=O)N[C@@H](CCC(=O)O)C(=O)N[C@@H](Cc1ccncc1)C(=O)N[C@@H](CC(C)C)C(=O)N[C@@H](CC(C)C)C(=O)N[C@@H](CCC(=O)O)C(=O)N[C@@H](C)C(=O)NCC(=O)N1CCC[C@H]1C(=O)N[C@@H](CO)C(=O)N[C@@H](CO)C(=O)NCC(=O)N[C@@H](C)C(=O)N1CCC[C@H]1C(=O)N1CCC[C@H]1C(=O)N1CCC[C@H]1C(=O)N[C@@H](CO)C(N)=O)C(C)C [Example 43] (H-Y[Aib]EGT[αMeF]ISDYSIALDKK([AEEA-AEEA-γGlu-C20 diacid])HQ[Aib]DFVE[4Pal]LLEAGPSSGAPPPS-NH2) | 605 nM | 1020 nM | > 5000 nM |
